Data as given in patent US20110144577A1, “HYDROPHILIC COATINGS WITH TUNABLE COMPOSITION FOR DRUG COATED BALLOON” (priority 2009, published 2011).

Test: Solubility enhancement of zotarolimus with select excipients in PBS
Type: physicochemical
Conditions: n = 3
From the text: Table 1 provides non-limiting examples of the solubility enhancement provided by excipients that can be used in accordance with the disclosed subject matter: […]

- solubility (PBS with 5% w/w PEG 400, aqueous with cosolvent or surfactant or cyclodextrin, PEG 400 5% w/w in PBS): 31.5 ± 3.5 µg/mL
- solubility (PBS with 5% w/w PEG-PE, aqueous with cosolvent or surfactant or cyclodextrin, PEG-PE 5% w/w in PBS): 1020 ± 417 µg/mL
- solubility (PBS with 5% w/w PVP C-17, aqueous with cosolvent or surfactant or cyclodextrin, PVP C-17 5% w/w in PBS): 5.6 ± 1.6 µg/mL
- solubility (PBS with 5% w/w Tween 20, aqueous with cosolvent or surfactant or cyclodextrin, Tween 20 5% w/w in PBS): 732 ± 94.7 µg/mL
- solubility (PBS with 5% w/w Vitamin E TPGS, aqueous with cosolvent or surfactant or cyclodextrin, Vitamin E TPGS 5% w/w in PBS): 512 ± 49.5 µg/mL
- solubility (PBS with 5% w/w glycerol, aqueous with cosolvent or surfactant or cyclodextrin, Glycerol 5% w/w in PBS): 43.2 ± 30.1 µg/mL
- solubility (PBS with 5% w/w hydroxypropyl-β-cyclodextrin, aqueous with cosolvent or surfactant or cyclodextrin, Hydroxypropyl-β-cyclodextrin 5% w/w in PBS): 11.6 ± 3.1 µg/mL
- solubility (PBS with 5% γ-cyclodextrin, aqueous with cosolvent or surfactant or cyclodextrin, 5% γ-Cyclodextrin in PBS): 55.3 ± 34.3 µg/mL
Structure (SMILES): CO[C@H]1C[C@@H]2CC[C@@H](C)[C@@](O)(O2)C(=O)C(=O)N2CCCC[C@H]2C(=O)O[C@H]([C@H](C)C[C@@H]2CC[C@H](n3cnnn3)[C@H](OC)C2)CC(=O)[C@H](C)/C=C(\C)[C@@H](O)[C@@H](OC)C(=O)[C@H](C)C[C@H](C)/C=C/C=C/C=C/1C [Zotarolimus, zotarolimus]
